In ChEMBL document CHEMBL1150061, “Isolation of 9-Dihydro-13-acetylbaccatin III from Taxus canadensis” (J Nat Prod, 1992):
≈ marks a conversion by molar mass, not a printed value.

Tested on: P388
Test: Antiproliferative activity against mouse P388 cells by MTT assay
Type: functional, cell-based

Row | IC50 [µg/mL] | Compound
1 | 20 (≈ 31.7 µM) | CC(=O)O[C@H]1C[C@@]2(O)[C@@H](OC(=O)c3ccccc3)[C@@H]3[C@]4(OC(C)=O)CO[C@@H]4C[C@H](O)[C@@]3(C)[C@@H](O)[C@H](OC(C)=O)C(=C1C)C2(C)C
2 | 0.05 (≈ 0.0586 µM) | CC(=O)O[C@H]1C(=O)[C@@]2(C)[C@H]([C@H](OC(=O)c3ccccc3)[C@]3(O)C[C@H](OC(=O)[C@H](O)[C@@H](NC(=O)c4ccccc4)c4ccccc4)C(C)=C1C3(C)C)[C@]1(OC(C)=O)CO[C@@H]1C[C@@H]2O [PACLITAXEL]
